Reference: ChEMBL document CHEMBL1201862, “PubChem BioAssay data set” (2004)
Structures can show the parent of a compound that is named as a salt.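 Assay format: 96-well plates, 48-hour exposure. The concentration for 50% growth inhibition is given as GI50.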 Calls of active or inactive are those of the source. Cut-off read from the data, not from the text of the source: active = GI50 up to about 1.1 µM and inactive = higher.

What was measured:
Assay in all cases: NCI tumour cell line growth inhibition, 48 h
[1] = test system: RXF 631
[2] = test system: SNB-78
[3] = test system: DLD-1
[4] = test system: DMS-273
[5] = test system: XF498
[6] = test system: M19-MEL
[7] = test system: DMS-114
[8] = test system: KM-20L2
[9] = test system: HOP-18

| Compound | GI50 [1] | GI50 [2] | GI50 [3] | GI50 [4] | GI50 [5] | GI50 [6] | GI50 [7] | GI50 [8] | GI50 [9] |
| --- | --- | --- | --- | --- | --- | --- | --- | --- | --- |
| N#C/C(=C\c1cc(O)c(O)c(O)c1)C(N)=O | > 100 µM (inactive) | > 100 µM (inactive) | > 100 µM (inactive) | > 100 µM (inactive) | > 100 µM (inactive) | 45.3 µM (inactive) | > 100 µM (inactive) | 74.1 µM (inactive) |  |
| CCN1CCC(O)(c2ccccc2)C(C(=O)c2ccccc2)C1 (stereo not given) |  | 26.7 µM (inactive) | 19.4 µM (inactive) | > 94.4 µM (inactive) | 16.3 µM (inactive) | 26.7 µM (inactive) | 29.9 µM (inactive) | 32 µM (inactive) | 14.7 µM (inactive) |
| S=c1sc2sc(=S)sc2s1 | 18.7 µM (inactive) | 54.5 µM (inactive) | 37.1 µM (inactive) | > 100 µM (inactive) |  | 28.6 µM (inactive) |  | 70.3 µM (inactive) | > 100 µM (inactive) |
| Cn1cc(C(=O)c2ccccc2)c2ccccc2c1=O |  |  | > 100 µM (inactive) | > 100 µM (inactive) | > 100 µM (inactive) | > 100 µM (inactive) | > 100 µM (inactive) |  |  |
| Cc1cc2c(=O)c(C)n[nH]c2c(C#N)c1C | > 100 µM (inactive) |  | > 100 µM (inactive) | > 100 µM (inactive) | > 100 µM (inactive) | > 100 µM (inactive) |  | > 100 µM (inactive) | > 100 µM (inactive) |
| CSC1=Nc2ccccc2N=C(c2ccc(Cl)cc2)C1 |  | 52.5 µM (inactive) | 25.9 µM (inactive) |  | 36.5 µM (inactive) | 36.3 µM (inactive) |  | 35.5 µM (inactive) | 0.0877 µM (active) |
| C/C(=N\NC(=S)N1CCC1)c1ccccn1 | < 0.0262 µM (active) | 2.2 µM (inactive) | 0.01 µM (active) | 0.01 µM (active) | 0.457 µM (active) | 0.0815 µM (active) | 0.01 µM (active) | 0.01 µM (active) | 0.929 µM (active) |
| CC1=NN(C(=O)CC(=O)Nc2ccccc2F)C(=O)C1/N=N/c1ccccc1[N+](=O)[O-] (stereo not given) |  | 87.3 µM (inactive) | 83 µM (inactive) | 49.9 µM (inactive) | > 100 µM (inactive) | 18.7 µM (inactive) | 57.9 µM (inactive) | > 100 µM (inactive) |  |
| C=C1CN2CCc3c([nH]c4ccccc34)C2CC1CC(=O)N(C)C (stereo not given) |  |  | > 309 µM (inactive) | > 309 µM (inactive) | > 309 µM (inactive) | > 309 µM (inactive) | > 309 µM (inactive) | > 309 µM (inactive) | > 309 µM (inactive) |
| COC1=C(OC)CCC(/C(C#N)=C/c2ccc(OC)c(OC)c2)=C1 | > 100 µM (inactive) | 53.2 µM (inactive) | > 100 µM (inactive) | 49.8 µM (inactive) |  | > 100 µM (inactive) | 31.6 µM (inactive) | > 100 µM (inactive) | > 100 µM (inactive) |
| CN(C)/C(=N/C(=O)Nc1ccccc1)SCc1ccccc1 |  | > 100 µM (inactive) | 65.3 µM (inactive) | > 100 µM (inactive) | 6.43 µM (inactive) | > 100 µM (inactive) | 67.5 µM (inactive) |  | 64.9 µM (inactive) |
| O=C(O)CC12C3C4C5C3C1C5C42 (stereo not given) |  | > 100 µM (inactive) | > 100 µM (inactive) | > 100 µM (inactive) | > 100 µM (inactive) | > 100 µM (inactive) | > 100 µM (inactive) | > 100 µM (inactive) |  |
| CCCCCCCCCCCCCC1CCC(CC)N1 (stereo not given) |  | 13 µM (inactive) | 14.9 µM (inactive) | 14.5 µM (inactive) |  | 3.18 µM (inactive) | 7 µM (inactive) | 13.3 µM (inactive) | 17.1 µM (inactive) |
| CC(=O)OC1COC(n2ccc3cc(Br)c([N+](=O)[O-])cc32)C(OC(C)=O)C1OC(C)=O (stereo not given) | 23.7 µM (inactive) | 20.8 µM (inactive) | 44.3 µM (inactive) | 29.9 µM (inactive) | 14.3 µM (inactive) | 29.4 µM (inactive) | 27.7 µM (inactive) | 31 µM (inactive) | > 10 µM (inactive) |
| CC1(Cl)C(=O)NC(=O)N(C2CC(N=[N+]=[N-])C(CO)O2)C1N=[N+]=[N-] (stereo not given) | > 100 µM (inactive) |  | > 100 µM (inactive) | > 100 µM (inactive) | > 100 µM (inactive) | > 100 µM (inactive) | > 100 µM (inactive) | > 100 µM (inactive) |  |
| CC(=O)/C(=C\c1ccco1)C(=O)Nc1ccccc1 |  | > 100 µM (inactive) | > 100 µM (inactive) |  | > 100 µM (inactive) | > 100 µM (inactive) | > 100 µM (inactive) |  | > 100 µM (inactive) |
| Cc1ccc(C(=O)Oc2ccccc2)cc1/N=N/N(C)C |  | > 100 µM (inactive) | > 100 µM (inactive) | 61.9 µM (inactive) |  | > 100 µM (inactive) |  | 38.3 µM (inactive) |  |
| CC(C)(C)C(=O)/C=C/c1cccc(Oc2ccccc2)c1 | 28.1 µM (inactive) | 14.2 µM (inactive) | 11.5 µM (inactive) |  | 18.8 µM (inactive) | 16.9 µM (inactive) |  | 14.3 µM (inactive) | 16.6 µM (inactive) |
| O=C/C1=C/C2=Cc3ccccc3C=C(/C=C(/C=O)C1)C2 |  | 52.7 µM (inactive) | 38.4 µM (inactive) | 34.2 µM (inactive) | 54.5 µM (inactive) | 53.8 µM (inactive) | 38.3 µM (inactive) | > 100 µM (inactive) |  |
| O=C1OC(c2ccccc2)=N/C1=C/N1CCCC1C(=O)O (stereo not given) | > 100 µM (inactive) | > 100 µM (inactive) | > 100 µM (inactive) | > 100 µM (inactive) | > 100 µM (inactive) | > 100 µM (inactive) | > 100 µM (inactive) | > 100 µM (inactive) | > 100 µM (inactive) |
| NNC(=O)C1CCC(=O)N1S(=O)(=O)c1ccccc1 (stereo not given) |  | > 100 µM (inactive) | > 100 µM (inactive) | > 100 µM (inactive) | > 100 µM (inactive) | > 100 µM (inactive) | > 100 µM (inactive) | > 100 µM (inactive) |  |
| CO[C@@H]1C=C[C@@]23c4cc5c(cc4CN(C[C@@H]2O)[C@H]3C1)OCO5 [(+)-HAEMANTHAMINE] |  | 52.5 µM (inactive) | 15.3 µM (inactive) |  | 16.7 µM (inactive) | 16.6 µM (inactive) | 79.6 µM (inactive) | 11.7 µM (inactive) | 21.8 µM (inactive) |
| CNC(C)Cc1ccccc1OC (stereo not given) [METHOXYPHENAMINE HYDROCHLORIDE] | > 100 µM (inactive) | > 100 µM (inactive) | > 100 µM (inactive) | > 100 µM (inactive) | > 100 µM (inactive) |  | > 100 µM (inactive) | > 100 µM (inactive) | > 100 µM (inactive) |
